Each structure is given as a SMILES string.

For the first test, the target named is mouse PKCα (Mus musculus, UniProt P20444). Put plainly: PKC binding assay.
Details: not given
Compound `C=CCCCCCOc1ccc2c(c1)N(C)[C@@H](C(C)C)C(=O)N[C@H](CO)C2` [compound 3, 9-Hept-6-enyloxy-5-hydroxymethyl-2-isopropyl-1-methyl-1,4,5,6-tetrahydro-2H-benzo[e][1,4] diazocin-3-one] came in with a Ki of 5.4 ± 0.1 nM.

`CC(=O)SCCCOc1ccc2c(c1)N(C)[C@@H](C(C)C)C(=O)N[C@H](CO)C2` [compound 9, Thioacetic acid S-[3-(5-hydroxymethyl-2-isopropyl-1-methyl-3-oxo-1,2,3,4,5,6-hexahydro-benzo[e] [1,4]diazocin-9-yloxy)-propyl] ester] registered a Ki of 21 ± 2.8 nM.

As to `CC(=O)SCCCCOc1ccc2c(c1)N(C)[C@@H](C(C)C)C(=O)N[C@H](CO)C2` [compound 10, Thioacetic acid S-[4-(5-hydroxymethyl-2-isopropyl-1-methyl-3-oxo-1,2,3,4,5,6-hexahydro-benzo [e][1,4]diazocin-9-yloxy)-butyl] ester], the affinity, expressed as Ki, was 15.8 ± 0.8 nM.

As for `CC(=O)SCCCCCOc1ccc2c(c1)N(C)[C@@H](C(C)C)C(=O)N[C@H](CO)C2` [compound 11, Thioacetic acid S-[5-(5-hydroxymethyl-2-isopropyl-1-methyl-3-oxo-1,2,3,4,5,6-hexahydro-benzo[e] [1,4]diazocin-9-yloxy)-pentyl] ester], the Ki is 6.6 ± 0.2 nM.

In turn, `CC(=O)SCCCCCCCOc1ccc2c(c1)N(C)[C@@H](C(C)C)C(=O)N[C@H](CO)C2` [compound 13, Thioacetic acid S-[7-(5-hydroxymethyl-2-isopropyl-1-methyl-3-oxo-1,2,3,4,5,6-hexahydrobenzo[e] [1,4]diazocin-9-yloxy)-heptyl] ester] gave a Ki of 4.5 ± 0.4 nM.

For the compound `CC(=O)SCCCCCCCCOc1ccc2c(c1)N(C)[C@@H](C(C)C)C(=O)N[C@H](CO)C2` [compound 14, Thioacetic acid S-[8-(5-hydroxymethyl-2-isopropyl-1-methyl-3-oxo-1,2,3,4,5,6-hexahydro-benzo[e] [1,4]diazocin-9-yloxy)-octyl] ester], the Ki amounted to 2.8 ± 0.5 nM.

Staying with this test, now noted: read-out: Ki [nM] ± SEM.
As to `CC(C)[C@H]1C(=O)N[C@H](CO)Cc2ccc(O)cc2N1C` [compound 2, 9-Hydroxy-5-hydroxymethyl-2-isopropyl-1-methyl-(2S,5S)-1,4,5,6-tetrahydro-2H-benzo[e][1,4] diazocin-3-one], the Ki came out at 4840 ± 320 nM.

One may read the Ki as a dissociation constant, usually derived from enzyme kinetics or from competition with a known ligand.

Source of the values: article PMC3057395 (ChemMedChem, 2009).
